Tested on: 349418-098-R-PDC spheroids, viability, % test/control
Test: Anticancer human tumor 349418-098-R-PDC patient-derived lung adenocarcinoma cell line growth inhibition [IpAb]
Conditions: spheroids with HUVEC and MSC; for IC50: curve of first compound; for viability, T/C: stronger effect = lower value
Procedure, shortened: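 Multi-cell spheroids of 60% tumour cells, 25% HUVEC and 15% MSC in ultra-low-attachment U-bottom wells, treated with agents combined with ipatasertib or abemaciclib. Half-log ranges top out near clinical Cmax, or 10 microM when Cmax is unknown.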
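Note: spheroids exposed to compounds for 7 days.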

Compound: C=CC(=O)N1CCN(c2nc(=O)n(-c3c(C)ccnc3C(C)C)c3nc(-c4c(O)cccc4F)c(F)cc23)C(C)C1 (stereo not given) + CC(C)NCC(C(=O)N1CCN(c2ncnc3c2C(C)CC3O)CC1)c1ccc(Cl)cc1
- IC50 (second compound 0.1 µM): 4010 nM
- IC50 (second compound 0.316 µM): 1000 nM
- IC50 (second compound 1 µM): < 31.6 nM
- IC50 (second compound 3.16 µM): < 31.6 nM
- IC50 (second compound 10 µM): < 31.6 nM
- viability, T/C (second compound 0.1 µM, first compound 0.0316 µM): 95.8%
- viability, T/C (second compound 0.1 µM, first compound 0.1 µM): 89.6%
- viability, T/C (second compound 0.1 µM, first compound 0.316 µM): 76.7%
- viability, T/C (second compound 0.1 µM, first compound 1 µM): 70.2%
- viability, T/C (second compound 0.1 µM, first compound 3.16 µM): 64.7%
- viability, T/C (second compound 0.1 µM, first compound 10 µM): 21.7%
- viability, T/C (second compound 0.316 µM, first compound 0.0316 µM): 51.9%
- viability, T/C (second compound 0.316 µM, first compound 0.1 µM): 55.1%
- viability, T/C (second compound 0.316 µM, first compound 0.316 µM): 51.4%
- viability, T/C (second compound 0.316 µM, first compound 1 µM): 50.2%
- viability, T/C (second compound 0.316 µM, first compound 3.16 µM): 23.9%
- viability, T/C (second compound 0.316 µM, first compound 10 µM): 12.5%
- viability, T/C (second compound 1 µM, first compound 0.0316 µM): 28.4%
- viability, T/C (second compound 1 µM, first compound 0.1 µM): 28.3%
- viability, T/C (second compound 1 µM, first compound 0.316 µM): 19.6%
- viability, T/C (second compound 1 µM, first compound 1 µM): 17.2%
- viability, T/C (second compound 1 µM, first compound 3.16 µM): 11.9%
- viability, T/C (second compound 1 µM, first compound 10 µM): 7.34%
- viability, T/C (second compound 3.16 µM, first compound 0.0316 µM): 12.3%
- viability, T/C (second compound 3.16 µM, first compound 0.1 µM): 13.3%
- viability, T/C (second compound 3.16 µM, first compound 0.316 µM): 11.8%
- viability, T/C (second compound 3.16 µM, first compound 1 µM): 10%
- viability, T/C (second compound 3.16 µM, first compound 3.16 µM): 6.96%
- viability, T/C (second compound 3.16 µM, first compound 10 µM): 5.34%
- viability, T/C (second compound 10 µM, first compound 0.0316 µM): 6.48%
- viability, T/C (second compound 10 µM, first compound 0.1 µM): 8.12%
- viability, T/C (second compound 10 µM, first compound 0.316 µM): 6.94%
- viability, T/C (second compound 10 µM, first compound 1 µM): 5.09%
- viability, T/C (second compound 10 µM, first compound 3.16 µM): 5.95%
- viability, T/C (second compound 10 µM, first compound 10 µM): 4.63%

Compound: CC(C)(C)c1cnc(CSc2cnc(NC(=O)C3CCNCC3)s2)o1 + CC(C)NCC(C(=O)N1CCN(c2ncnc3c2C(C)CC3O)CC1)c1ccc(Cl)cc1
- IC50 (second compound 0.1 µM): 40.6 nM
- IC50 (second compound 0.316 µM): < 9.49 nM
- IC50 (second compound 1 µM): < 9.49 nM
- IC50 (second compound 3.16 µM): < 9.49 nM
- IC50 (second compound 10 µM): < 9.49 nM
- viability, T/C (second compound 0.1 µM, first compound 0.00949 µM): 88.9%
- viability, T/C (second compound 0.1 µM, first compound 0.03 µM): 65.3%
- viability, T/C (second compound 0.1 µM, first compound 0.0949 µM): 6.84%
- viability, T/C (second compound 0.1 µM, first compound 0.3 µM): 2.85%
- viability, T/C (second compound 0.1 µM, first compound 0.949 µM): 2.98%
- viability, T/C (second compound 0.1 µM, first compound 3 µM): 2.15%
- viability, T/C (second compound 0.316 µM, first compound 0.00949 µM): 45.6%
- viability, T/C (second compound 0.316 µM, first compound 0.03 µM): 31.9%
- viability, T/C (second compound 0.316 µM, first compound 0.0949 µM): 5.43%
- viability, T/C (second compound 0.316 µM, first compound 0.3 µM): 2.19%
- viability, T/C (second compound 0.316 µM, first compound 0.949 µM): 2.77%
- viability, T/C (second compound 0.316 µM, first compound 3 µM): 1.75%
- viability, T/C (second compound 1 µM, first compound 0.00949 µM): 22.1%
- viability, T/C (second compound 1 µM, first compound 0.03 µM): 15.5%
- viability, T/C (second compound 1 µM, first compound 0.0949 µM): 3.25%
- viability, T/C (second compound 1 µM, first compound 0.3 µM): 2.27%
- viability, T/C (second compound 1 µM, first compound 0.949 µM): 2.58%
- viability, T/C (second compound 1 µM, first compound 3 µM): 2.1%
- viability, T/C (second compound 3.16 µM, first compound 0.00949 µM): 9.45%
- viability, T/C (second compound 3.16 µM, first compound 0.03 µM): 8.27%
- viability, T/C (second compound 3.16 µM, first compound 0.0949 µM): 3.2%
- viability, T/C (second compound 3.16 µM, first compound 0.3 µM): 2.2%
- viability, T/C (second compound 3.16 µM, first compound 0.949 µM): 2.72%
- viability, T/C (second compound 3.16 µM, first compound 3 µM): 2.4%
- viability, T/C (second compound 10 µM, first compound 0.00949 µM): 5.95%
- viability, T/C (second compound 10 µM, first compound 0.03 µM): 5.37%
- viability, T/C (second compound 10 µM, first compound 0.0949 µM): 2.11%
- viability, T/C (second compound 10 µM, first compound 0.3 µM): 1.93%
- viability, T/C (second compound 10 µM, first compound 0.949 µM): 2.03%
- viability, T/C (second compound 10 µM, first compound 3 µM): 1.53%

— PubChem BioAssay AID2060340 (Molecular Pharmacology Branch, DTP, NCI, 2025)
